Measurements as given in patent publication US12037325B2, “1,2-diaminobenzimidazole derivative” (Carna Biosciences, Inc., priority 2021, dated 2024).
pIC50: −log10 of the molar value. Structures can show the parent of a compound that is named as a salt.

Tests used:
hSTING = molecular target: T1, hSTING (Homo sapiens, UniProt Q86WV6); experiment: Inhibition test of intracellular human STING (hSTING) pathways using reporter cells (HEK-Blue ISG, SEAP reporter); assay type: cell-based; details: stimulation with Compound 3 (10 nM), 21 hours, read-out: Inhibitory Activity on hSTING
T1 construct: host or cells: HEK-Blue ISG cells (HEK293-derived SEAP reporter line)
Protocol: Since STING activates the transcription factor IRF3 by ligand stimulation, the activity of STING can be evaluated by a reporter assay using a secreted alkaline phosphatase (SEAP reporter) incorporated downstream of the IRF-inducible promoter. In other words, the hSTING inhibitory activity of the test compounds was evaluated using HEK-Blue™ ISG cells (manufactured by InvivoGen, #hkb-isg-1) into which the SEAP reporter was incorporated. The activation of hSTING was performed by stimulation with the small molecule ligand, Compound 3 as described in the literature (Ramanjulu, J. M., et al., Nature. 2018, 564 (7736), 439-443).
The HEK-Blue™ ISG cells were seeded in 96-well plates and cultured overnight at 37° C. in a 5% CO2 incubator. To each well of the cell culture plates, a test compound solution adjusted to have a final concentration of 0.1 to 10 μM was added and cultured in the CO2 incubator for 1 hour. Then, the Compound 3 (final concentration of 10 nM) was added thereto and further cultured in the CO2 incubator for 21 hours. After collecting the culture supernatant from each well, the reporter activity was measured by luminous reaction of alkaline phosphatase.
(§1) Method for Evaluating Inhibitory Activity. Taking the reporter activity in the group without test compounds added and with Compound 3 added as 100% and the reporter activity in the group without test compounds added and without Compound 3 added as 0%, IC50 values were determined by regression analysis of the inhibition rate calculated from the reporter activity at each compound concentration and the test compound concentration (logarithm).
Evaluation Result. […] The inhibitory effect on the hSTING was indicated by marking an IC50 value of less than 0.1 μM with ***, that of 0.1 μM or more and less than 1 μM with **, that of 1 μM or more and less than 10 μM with *, and that of 10 μM or more with “-”.

STING = molecular target: T2, STING (Homo sapiens, UniProt Q86WV6, G230A/H232R/R293Q/R71H); experiment: Inhibition test of human IFN-β production by cGAMP stimulation in THP-1 cells; assay type: cell-based; details: PMA-treated THP-1 cells, 2'3'-cGAMP transfection, 18 hours, ELISA of culture supernatant; read-out: Inhibitory effect on the IFN-β production
T2 construct: host or cells: THP-1 cells, PMA-treated
Protocol: The human monocytic cell line THP-1 cells were used to measure the amount of IFN-β produced when stimulated with the endogenous ligand cGAMP, thereby evaluating the inhibitory activity of the test compounds on STING activation.
After THP-1 cells (manufactured by ATCC) were seeded in 96-well plates, PMA (manufactured by Santa Cruz Biotechnology, Inc.) adjusted to a concentration after addition of 100 nM was added and cultured overnight at a 37° C. in a 5% CO2 incubator (10% FBS, 50 U/mL penicillin/50 μg/mL streptomycin-containing RPMI 1640 medium). To each well of the plate, a test compound solution adjusted to a final concentration of 0.001-1 μM of the test compound was added and cultured in the CO2 incubator for 1 hour (DMSO final concentration of 0.1%). 0.12 μg/well of 2′3′-cGAMP (manufactured by ChemieTek, #CT-CGAMP) was introduced into the cells by transfection method using Lipofectamine 2000 (manufactured by Invitrogen) and cultured in the CO2 incubator for another 18 hours. After collecting the culture supernatant from each well, the amount of human IFN-P production in the culture supernatant was measured by ELISA method using R&D human IFN-β Duoset (manufactured by R&D systems).
as §1, with “amount of human IFN-β production” for “reporter activity”, “cGAMP” for “Compound 3”
Evaluation Result. […] The inhibitory effect on the IFN-β production was indicated by marking an IC50 value of less than 0.01 μM with ***, that of 0.01 μM or more and less than 0.1 μM with **, that of 0.1 μM or more and less than 1 μM with *, and that of 1 μM or more with “-”, and NT was marked as unmeasured.

T1 sequence (Q86WV6 whole entry H232R): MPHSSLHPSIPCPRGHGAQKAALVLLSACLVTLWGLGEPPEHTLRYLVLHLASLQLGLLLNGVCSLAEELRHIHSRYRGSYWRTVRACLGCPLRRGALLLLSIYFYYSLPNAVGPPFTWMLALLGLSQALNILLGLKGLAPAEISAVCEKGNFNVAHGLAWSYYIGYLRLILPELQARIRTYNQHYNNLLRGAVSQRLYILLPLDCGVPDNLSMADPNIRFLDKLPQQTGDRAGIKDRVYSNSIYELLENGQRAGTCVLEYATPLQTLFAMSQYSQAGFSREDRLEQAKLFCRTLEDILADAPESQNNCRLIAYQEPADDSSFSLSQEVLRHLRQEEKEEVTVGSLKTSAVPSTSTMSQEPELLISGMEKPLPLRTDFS
T2 sequence (Q86WV6 whole entry R71H/G230A/H232R/R293Q): as the sequence (Q86WV6 whole entry H232R) above, with R71H, G230A, R293Q counted along it

pIC50 (hSTING) | pIC50 (STING) | SMILES
5.00 to 6.00 | < 6.00 | CNn1c(Nc2c[nH]c3ccc(F)c(F)c23)nc2cc(C(F)(F)F)c(F)cc21 [Example 12, N2-(4,5-difluoro-1H-indol-3-yl)-6-fluoro-N1-methyl-5-(trifluoromethyl)-1H-benzo[d]imidazole-1,2-diamine hydrochloride]
> 7.00 | > 8.00 | CNn1c(Nc2c[nH]c3ccc(F)c(F)c23)nc2cc(C(F)(F)F)ccc21 [Example 3, N2-(4,5-difluoro-1H-indol-3-yl)-N1-methyl-5-(trifluoromethyl)-1H-benzo[d]imidazol-1,2-diamine Hydrochloride]
> 7.00 | > 8.00 | CCNn1c(Nc2c[nH]c3cc(F)c(F)cc23)nc2cc(C(F)(F)F)ccc21 [Example 15, N2-(5,6-difluoro-1H-indol-3-yl)-N1-ethyl-5-(trifluoromethyl)-1H-benzo[d]imidazole-1,2-diamine]
> 7.00 | > 8.00 | Nn1c(Nc2c[nH]c3cc(F)c(F)cc23)nc2cc(C(F)(F)F)ccc21 [Example 2, N2-(5,6-difluoro-1H-indol-3-yl)-5-(trifluoromethyl)-1H-benzo[d]imidazol-1,2-diamine Formate]
> 7.00 | 7.00 to 8.00 | CCCNn1c(Nc2c[nH]c3ccc(Cl)cc23)nc2cc(C(F)(F)F)ccc21 [Example 24, N2-(5-chloro-1H-indol-3-yl)-N1-propyl-5-(trifluoromethyl)-1H-benzo[d]imidazole-1,2-diamine]
> 7.00 | > 8.00 | CNn1c(Nc2c[nH]c3c(F)cc(F)cc23)nc2cc(C(F)(F)F)cc(F)c21 [Example 13, N2-(5,7-difluoro-1H-indol-3-yl)-7-fluoro-N1-methyl-5-(trifluoromethyl)-1H-benzo[d]imidazole-1,2-diamine hydrochloride]

More lines, now with the values behind:

SMILES | pIC50 (hSTING) | pIC50 (STING)
CCNn1c(Nc2c[nH]c3ccc(Cl)cc23)nc2cc(C(F)(F)F)ccc21 [Example 6, N2-(5-chloro-1H-indol-3-yl)-N1-ethyl-5-(trifluoromethyl)-1H-benzo[d]imidazol-1,2-diamine Hydrochloride] | > 7.00 | > 8.00
Nn1c(Nc2c[nH]c3ccc(F)cc23)nc2cc(C(F)(F)F)ccc21 [Example 28, N2-(5-fluoro-1H-indol-3-yl)-5-(trifluoromethyl)-1H-benzo[d]imidazole-1,2-diamine] | 6.00 to 7.00 | 7.00 to 8.00
CNn1c(Nc2c[nH]c3ccc(C)cc23)nc2cc(C(F)(F)F)c(F)cc21 [Example 8, 6-fluoro-N1-methyl-N2-(5-methyl-1H-indol-3-yl)-5-(trifluoromethyl)-1H-benzo[d]imidazole-1,2-diamine] | > 7.00 | > 8.00
CNn1c(Nc2c[nH]c3ncc(Cl)cc23)nc2cc(C(F)(F)F)ccc21 [Example 27, N2-(5-chloro-1H-pyrrolo[2,3-b]pyridin-3-yl)-N1-methyl-5-(trifluoromethyl)-1H-benzo[d]imidazole-1,2-diamine hydrochloride] | 6.00 to 7.00 | 6.00 to 7.00
Cc1ccc2[nH]cc(Nc3nc4cc(C(F)(F)F)c(F)cc4n3N)c2c1 [Example 9, 6-fluoro-N2-(5-methyl-1H-indol-3-yl)-5-(trifluoromethyl)-1H-benzo[d]imidazole-1,2-diamine hydrochloride] | 6.00 to 7.00 | > 8.00
CNn1c(Nc2c[nH]c3ccc(Cl)nc23)nc2cc(C(F)(F)F)ccc21 [Example 26, N2-(5-chloro-1H-pyrrolo[3,2-b]pyridin-3-yl)-N1-methyl-5-(trifluoromethyl)-1H-benzo[d]imidazole-1,2-diamine hydrochloride] | 5.00 to 6.00 | 6.00 to 7.00
Nn1c(Nc2c[nH]c3ccc(Cl)cc23)nc2cc(C(F)(F)F)c(F)cc21 [Example 7, N2-(5-chloro-1H-indol-3-yl)-6-fluoro-5-(trifluoromethyl)-1H-benzo[d]imidazole-1,2-diamine hydrochloride] | > 7.00 | > 8.00
